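Briefly, cells in 96-well plates were exposed to five compound concentrations for 48 h, and endpoints were estimated by linear interpolation. GI50 = concentration required for 50% inhibition of growth.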 Activity calls are given as the source filed them. No stated cut-off is given here; in the data, active = GI50 up to about 1.1 µM and inactive = higher.
Legend:
Test in all cases: DTP human tumour cell line panel, 48 h
OVCAR-5 = system: OVCAR-5
HCT-15 = system: HCT-15
K562 = system: K562
HOP-62 = system: HOP-62
U-251 = system: U-251
MDA-MB-435 = system: MDA-MB-435
MCF7 = system: MCF7
TK-10 = system: TK-10
NCI-H460 = system: NCI-H460
CAKI-1 = system: CAKI-1
OVCAR-4 = system: OVCAR-4
HCC 2998 = system: HCC 2998
ACHN = system: ACHN
IGROV-1 = system: IGROV-1
NCI-H522 = system: NCI-H522
RPMI-8226 = system: RPMI-8226
SK-MEL-2 = system: SK-MEL-2
NCI-H23 = system: NCI-H23
HCT-116 = system: HCT-116
SN12C = system: SN12C
OVCAR-3 = system: OVCAR-3
HOP-92 = system: HOP-92
M14 = system: M14
SF-295 = system: SF-295
RXF 393 = system: RXF 393
UACC-257 = system: UACC-257
MDA-N = system: MDA-N
BT-549 = system: BT-549
T47D = system: T47D
SF-268 = system: SF-268
MDA-MB-231 = system: MDA-MB-231
NCI/ADR-RES = system: NCI/ADR-RES
Malme-3M = system: Malme-3M
SK-MEL-28 = system: SK-MEL-28
UACC-62 = system: UACC-62
OVCAR-8 = system: OVCAR-8
HT-29 = system: HT-29
SNB-19 = system: SNB-19
SK-OV-3 = system: SK-OV-3
HL-60 = system: HL-60
A549 = system: A549
SW-620 = system: SW-620
SNB-75 = system: SNB-75
KM12 = system: KM12
SF-539 = system: SF-539
786-0 = system: 786-0
MOLT-4 = system: MOLT-4
CCRF-CEM = system: CCRF-CEM
DU-145 = system: DU-145
EKVX = system: EKVX
LOX IMVI = system: LOX IMVI
NCI-H226 = system: NCI-H226
COLO 205 = system: COLO 205
PC-3 = system: PC-3

For `O=C(O)C1CCCCN1CCc1c[nH]c2ccccc12` (centres undefined), the GI50 (OVCAR-5) was > 100 µM (inactive), the GI50 (HCT-15) was > 100 µM and the GI50 (K562) was > 100 µM (inactive). For the same molecule, the GI50 (HOP-62) was > 100 µM (inactive), the GI50 (U-251) was > 100 µM (inactive) and the GI50 (MDA-MB-435) was > 100 µM (inactive). For the same molecule, the GI50 (MCF7) was > 100 µM (inactive), the GI50 (TK-10) was > 100 µM (inactive) and the GI50 (NCI-H460) was > 100 µM (inactive). The GI50 (CAKI-1) was > 100 µM (inactive), the GI50 (OVCAR-4) was > 100 µM (inactive) and the GI50 (HCC 2998) was > 100 µM (inactive). The GI50 (ACHN) was > 100 µM (inactive), the GI50 (IGROV-1) was > 100 µM (inactive) and the GI50 (NCI-H522) was > 100 µM (inactive). The GI50 (RPMI-8226) was > 100 µM (inactive), the GI50 (SK-MEL-2) was > 100 µM (inactive) and the GI50 (NCI-H23) was > 100 µM (inactive). For the same molecule, the GI50 (HCT-116) was > 100 µM (inactive), the GI50 (SN12C) was > 100 µM (inactive) and the GI50 (OVCAR-3) was > 100 µM (inactive). The GI50 (HOP-92) was 30.7 µM (inactive), the GI50 (M14) was > 100 µM (inactive) and the GI50 (SF-295) was > 100 µM (inactive). For the same molecule, the GI50 (RXF 393) was > 100 µM (inactive), the GI50 (UACC-257) was > 100 µM (inactive) and the GI50 (MDA-N) was > 100 µM (inactive). For the same molecule, the GI50 (BT-549) was > 100 µM (inactive), the GI50 (T47D) was > 100 µM (inactive) and the GI50 (SF-268) was > 100 µM (inactive). The GI50 (MDA-MB-231) was > 100 µM (inactive), the GI50 (NCI/ADR-RES) was > 100 µM (inactive) and the GI50 (Malme-3M) was > 100 µM (inactive). For the same molecule, the GI50 (SK-MEL-28) was > 100 µM (inactive), the GI50 (UACC-62) was > 100 µM (inactive) and the GI50 (OVCAR-8) was > 100 µM (inactive). The GI50 (HT-29) was > 100 µM (inactive), the GI50 (SNB-19) was > 100 µM (inactive) and the GI50 (SK-OV-3) was > 100 µM (inactive). The GI50 (HL-60) was > 100 µM (inactive), the GI50 (A549) was > 100 µM (inactive) and the GI50 (SW-620) was > 100 µM (inactive). For the same molecule, the GI50 (SNB-75) was > 100 µM (inactive), the GI50 (KM12) was > 100 µM (inactive) and the GI50 (SF-539) was > 100 µM (inactive). The GI50 (786-0) was > 100 µM (inactive), the GI50 (MOLT-4) was > 100 µM (inactive) and the GI50 (CCRF-CEM) was > 100 µM (inactive). For the same molecule, the GI50 (DU-145) was > 100 µM (inactive), the GI50 (EKVX) was > 100 µM (inactive) and the GI50 (LOX IMVI) was > 100 µM (inactive). For the same molecule, the GI50 (NCI-H226) was > 100 µM (inactive), the GI50 (COLO 205) was > 100 µM (inactive) and the GI50 (PC-3) was > 100 µM (inactive).

Source: ChEMBL document CHEMBL1201862, “PubChem BioAssay data set” (2004)
